Where no end group is shown, it is not given here. [ ]: non-standard residue; d: D form. LINKER = not defined here
Columns and labels:
retina and RPE cells = assay: Intraocular (intravitreal) delivery, native GFP fluorescence in retinal sections and RPE whole mounts; type: in vivo; settings: 1.5 micrograms, Balb/c mice
Method: In the present Example, Balb/c mice were anesthetized by IP injection with Ketamine/Xylazine (90-100 mg/kg+10 mg/kg) and positioned underneath a microscope. Mice eyes were dilated with topical Tropicamide (1%) and 1 ul of loaded mini-nucleosomes (total dose 1.5 micrograms in mice) were injected into the vitreous cavity using 32 gauze blunt needle passing through the incision made by a 25-gauze needle below the limbus. At various time points, mice were perfused with 10 ml of 1×PBS, and then sacrificed using standard techniques. Mice were enucleated and eyecups were collected and incubated in 4% paraformaldehyde overnight. The eyecups were washed with 1×PBS, then immersed in 15% sucrose for few hours and then in 30% sucrose solution overnight for cryopreservation. The eyecups were then placed in a plastic vial and frozen using OCT compound for cryo-sectioning. 10-micron thick tissue sections were obtained for staining. The retinal sections were mounted with mounting media with or without DAPI, coverslip and sealed. Images were acquired by Leica SP5. For whole mount imaging, eyecups were fixed in 4% paraformaldehyde overnight. Eyecups were washed in 1×PBS, retina was removed and the remaining eyecup or RPE wholemount was processed for staining. The RPE tissue was whole mounted with mounting media, coverslip and sealed. Images were acquired by Leica SP5.
To target the RPE cells, the present Example utilized a mini-nucleosome core protein (SEQ ID NO: 392) that could bind to the phagocytic proteins like MERTK. RPE are phagocytic cells, that extend their microvilli to the photoreceptor inner/outer segment junction. MERTK is expressed in those microvilli. In SEQ ID NO: 392, we incorporated the “eat me” signals as descried in Table 8. In literature, “eat me” signals are described as domains exposed in cellular debris that are primed for phagocytosis (Wei Li, Journal of Cell physiology, 2016, which is incorporated herein by reference). To the present inventor's knowledge, these “eat me” signals have never been utilized in the context of non-viral vectors before. […]

[1] = Transmission Electron Microscopy (TEM) of loaded mini-nucleosomes (shape); type: physicochemical; settings: Luciferase plasmid (SEQ ID NO: 396) condensed with core protein; final formulation in sterile, endotoxin free water
Description: Provided in this Example are techniques to produce loaded mini-nucleosomes in various formulations, including formulations useful for administration to cells and to mammalian subjects, e.g., humans. Loaded mini-nucleosomes can be formulated to different shape and/or sizes parameters based on the mini-nucleosome core protein amino acid sequence and the buffer conditions in which the synthesis occurs. Loaded mini-nucleosomes can be formulated in different conditions, e.g., with solubility suitable for therapeutic use. Solubility of loaded mini-nucleosomes in water and/or normal saline is one means to allow non-toxic formulation of compositions for administration to patients, and to ease of delivery into patients. To form loaded mini-nucleosomes represented in FIG. 7, core proteins were synthesized by solid phase synthesis using trifluoroacetate buffers. 200 micrograms of DNA (SEQ ID NO: 396) were added to 1 milligram of lyophilized core proteins and vortexed together, and purified to produce loaded mini-nucleosomes (FIG. 7). Buffer exchange was performed and final formulation of mini-nucleosome was made in sterile, endotoxin free water. 1 microgram of each kind of mini-nucleosomes was diluted in water and then placed on grids that were stained with freshly prepared in 0.75% uranyl acetate in methanol solution for two minutes. […]

muscle cells = assay: Intramuscular delivery, GFP fluorescence and dystrophin immunolabeling in leg muscle sections; type: in vivo; settings: 17.5 ug per leg, Balb/c mice, 3-months post injection
Method: Balb/c mice were anesthetized by IP injection with Ketamine/Xylazine (90-100 mg/kg+10 mg/kg) and several loaded mini-nucleosomes were injected into both leg muscle at 17.5 ug doses per leg using an insulin syringe (Total dose 35 micrograms per mice). Mice were sacrificed at various time points and leg muscle were obtained for tissue sections. […] One skilled in the art may contemplate combining such domains with other domains known for muscle tropism.
To validate muscle specificity of expression of genes encoded by the nucleic acid cargo, we utilized dystrophin immunolabeling as an endogenous secondary marker. […] Native fluorescence of GFP was obtained in the 486-nm channel of Leica SP5 scope. Dystrophin in red is the RFP channel (555-nm). Untransduced muscle cells in figure also serve as internal control for differentiation between GFP signal and autofluorescence.

Row | Substance | GFP expression / transduction in retina and RPE (retina and RPE cells) | Shape of loaded mini-nucleosome (TEM) [1] | GFP fluorescence in muscle tissue sections at 3 months (muscle cells)
1 | SEQ ID NO. 388 (KKRHRKLREKRHRKLRRRRRLKRHRKKRHRKLREK; not fully specified) | express GFP to target neuronal cells in the retina |  | 
2 | SEQ ID NO:388 (KKRHRKLREKRHRKLRRRRRLKRHRKKRHRKLREK; not fully specified) | transduction into ganglion cells, bipolar cells and photoreceptors |  | 
3 | SEQ ID NO. 392 (KKKRKKTKKKAKKALKKKKKGKKKKRRRRKAAPKK; not fully specified) | enhanced uptake into the RPE |  | 
4 | KKKRHRKKKKK-[LINKER]-RGD-[LINKER]-KKKK-[LINKER]-NTQIH-[LINKER]-RRRRR-[LINKER]-TPH-[LINKER]-KK (KKKRHRKKKKK[LINKER]RGD[LINKER]KKKK[LINKER]NTQIH[LINKER]RRRRR[LINKER]TPH[LINKER]KK; reading uncertain; also: linker structure not given here) [SEQ ID NO: 391] |  | mixture of circular and rod like molecules | sharp green fluorescence in skeletal muscle cells
5 | CKKKKKKKKKKKKKKKKKKKKKKKKKKKKKK [SEQ ID NO: 393, reference compound] |  | spiral/helical-shaped | didn't exhibit GFP fluorescence
6 | KKKRHRKRKRKRKRRRRKKK-[LINKER]-ASSLNIAK-[LINKER]-RRRR (KKKRHRKRKRKRKRRRRKKK[LINKER]ASSLNIAK[LINKER]RRRR; reading uncertain; also: linker structure not given here) [SEQ ID NO: 389] |  |  | didn't exhibit GFP fluorescence
